Measurements: PubChem BioAssay (NCI)
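Assay format: 96-well plates, 48-hour exposure. TGI: concentration producing complete growth inhibition.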

What was measured:
Test in all cases: NCI tumour cell line growth inhibition, 48 h
786-0 renal = tested on: 786-0 renal
A498 renal = tested on: A498 renal
A549 NSCLC = tested on: A549 NSCLC
ACHN renal = tested on: ACHN renal
BT-549 breast = tested on: BT-549 breast
CAKI-1 renal = tested on: CAKI-1 renal
CCRF-CEM leukemia = tested on: CCRF-CEM leukemia
COLO 205 colon = tested on: COLO 205 colon
DU-145 prostate = tested on: DU-145 prostate
EKVX NSCLC = tested on: EKVX NSCLC
HCC-2998 colon = tested on: HCC-2998 colon
HCT-116 colon = tested on: HCT-116 colon
HCT-15 colon = tested on: HCT-15 colon
HL-60(TB) leukemia = tested on: HL-60(TB) leukemia
HOP-62 NSCLC = tested on: HOP-62 NSCLC
HOP-92 NSCLC = tested on: HOP-92 NSCLC
HS 578T breast = tested on: HS 578T breast
HT29 colon = tested on: HT29 colon
IGROV1 ovarian = tested on: IGROV1 ovarian
K-562 leukemia = tested on: K-562 leukemia
KM12 colon = tested on: KM12 colon
LOX IMVI melanoma = tested on: LOX IMVI melanoma
M14 melanoma = tested on: M14 melanoma
MALME-3M melanoma = tested on: MALME-3M melanoma
MCF7 breast = tested on: MCF7 breast
MDA-MB-231 breast = tested on: MDA-MB-231 breast
MDA-MB-435 = tested on: MDA-MB-435
MDA-N = tested on: MDA-N
MOLT-4 leukemia = tested on: MOLT-4 leukemia
NCI-H226 lung = tested on: NCI-H226 lung
NCI-H23 lung = tested on: NCI-H23 lung
NCI-H460 lung = tested on: NCI-H460 lung
NCI/ADR-RES ovarian = tested on: NCI/ADR-RES ovarian
OVCAR-3 ovarian = tested on: OVCAR-3 ovarian
OVCAR-4 ovarian = tested on: OVCAR-4 ovarian
OVCAR-5 ovarian = tested on: OVCAR-5 ovarian
OVCAR-8 ovarian = tested on: OVCAR-8 ovarian
PC-3 prostate = tested on: PC-3 prostate
RPMI-8226 leukemia = tested on: RPMI-8226 leukemia
RXF 393 renal = tested on: RXF 393 renal
SF-268 CNS = tested on: SF-268 CNS
SF-295 CNS = tested on: SF-295 CNS
SF-539 CNS = tested on: SF-539 CNS
SK-MEL-2 melanoma = tested on: SK-MEL-2 melanoma
SK-MEL-5 melanoma = tested on: SK-MEL-5 melanoma
SK-OV-3 ovarian = tested on: SK-OV-3 ovarian
SN12C renal = tested on: SN12C renal
SNB-19 CNS = tested on: SNB-19 CNS
SNB-75 CNS = tested on: SNB-75 CNS
SR leukemia = tested on: SR leukemia
SW-620 colon = tested on: SW-620 colon
T-47D breast = tested on: T-47D breast
TK-10 renal = tested on: TK-10 renal
U251 CNS = tested on: U251 CNS
UACC-257 melanoma = tested on: UACC-257 melanoma
UACC-62 melanoma = tested on: UACC-62 melanoma
UO-31 renal = tested on: UO-31 renal
NCI-H522 lung = tested on: NCI-H522 lung
SK-MEL-28 melanoma = tested on: SK-MEL-28 melanoma

COc1nncc2[nH]c(-c3ccccc3)cc12 was tested, and the TGI (786-0 renal) was > 100 µM, the TGI (A498 renal) was > 100 µM and the TGI (A549 NSCLC) was > 100 µM. The TGI (ACHN renal) was > 100 µM, the TGI (BT-549 breast) was > 100 µM and the TGI (CAKI-1 renal) was > 100 µM. The TGI (CCRF-CEM leukemia) was > 100 µM, the TGI (COLO 205 colon) was > 100 µM and the TGI (DU-145 prostate) was > 100 µM. For the same compound, the TGI (EKVX NSCLC) was > 100 µM, the TGI (HCC-2998 colon) was > 100 µM and the TGI (HCT-116 colon) was > 100 µM. For the same compound, the TGI (HCT-15 colon) was > 100 µM, the TGI (HL-60(TB) leukemia) was > 100 µM and the TGI (HOP-62 NSCLC) was > 100 µM. For the same compound, the TGI (HOP-92 NSCLC) was > 100 µM, the TGI (HS 578T breast) was > 100 µM and the TGI (HT29 colon) was > 100 µM. For the same compound, the TGI (IGROV1 ovarian) was > 100 µM, the TGI (K-562 leukemia) was > 100 µM and the TGI (KM12 colon) was > 100 µM. The TGI (LOX IMVI melanoma) was > 100 µM, the TGI (M14 melanoma) was > 100 µM and the TGI (MALME-3M melanoma) was > 100 µM. The TGI (MCF7 breast) was > 100 µM, the TGI (MDA-MB-231 breast) was > 100 µM and the TGI (MDA-MB-435) was > 100 µM. For the same compound, the TGI (MDA-N) was > 100 µM, the TGI (MOLT-4 leukemia) was 18.1 µM and the TGI (NCI-H226 lung) was > 100 µM. For the same compound, the TGI (NCI-H23 lung) was > 100 µM, the TGI (NCI-H460 lung) was > 100 µM and the TGI (NCI/ADR-RES ovarian) was > 100 µM. For the same compound, the TGI (OVCAR-3 ovarian) was > 100 µM, the TGI (OVCAR-4 ovarian) was > 100 µM and the TGI (OVCAR-5 ovarian) was > 100 µM. The TGI (OVCAR-8 ovarian) was > 100 µM, the TGI (PC-3 prostate) was > 100 µM and the TGI (RPMI-8226 leukemia) was > 100 µM. The TGI (RXF 393 renal) was > 100 µM, the TGI (SF-268 CNS) was > 100 µM and the TGI (SF-295 CNS) was > 100 µM. The TGI (SF-539 CNS) was > 100 µM, the TGI (SK-MEL-2 melanoma) was > 100 µM and the TGI (SK-MEL-5 melanoma) was > 100 µM. The TGI (SK-OV-3 ovarian) was > 100 µM, the TGI (SN12C renal) was > 100 µM and the TGI (SNB-19 CNS) was > 100 µM. For the same compound, the TGI (SNB-75 CNS) was > 100 µM, the TGI (SR leukemia) was > 100 µM and the TGI (SW-620 colon) was > 100 µM. For the same compound, the TGI (T-47D breast) was > 100 µM, the TGI (TK-10 renal) was > 100 µM and the TGI (U251 CNS) was > 100 µM. For the same compound, the TGI (UACC-257 melanoma) was > 100 µM, the TGI (UACC-62 melanoma) was > 100 µM and the TGI (UO-31 renal) was > 100 µM.
With C/C(=C\CBr)CCC(Br)C(C)(C)Br (centres undefined) the TGI (786-0 renal) was > 100 µM, the TGI (A498 renal) was > 100 µM and the TGI (A549 NSCLC) was > 100 µM. The TGI (ACHN renal) was > 100 µM, the TGI (BT-549 breast) was > 100 µM and the TGI (CCRF-CEM leukemia) was > 100 µM. The TGI (COLO 205 colon) was > 100 µM, the TGI (DU-145 prostate) was > 100 µM and the TGI (EKVX NSCLC) was > 100 µM. The TGI (HCC-2998 colon) was > 100 µM, the TGI (HCT-116 colon) was > 100 µM and the TGI (HCT-15 colon) was > 100 µM. The TGI (HL-60(TB) leukemia) was > 100 µM, the TGI (HOP-62 NSCLC) was > 100 µM and the TGI (HOP-92 NSCLC) was > 100 µM. The TGI (HS 578T breast) was > 100 µM, the TGI (HT29 colon) was > 100 µM and the TGI (IGROV1 ovarian) was > 100 µM. The TGI (K-562 leukemia) was > 100 µM, the TGI (KM12 colon) was > 100 µM and the TGI (M14 melanoma) was > 100 µM. For the same compound, the TGI (MALME-3M melanoma) was > 100 µM, the TGI (MCF7 breast) was > 100 µM and the TGI (MDA-MB-231 breast) was > 100 µM. For the same compound, the TGI (MDA-MB-435) was > 100 µM, the TGI (MDA-N) was > 100 µM and the TGI (MOLT-4 leukemia) was > 100 µM. The TGI (NCI-H226 lung) was > 100 µM, the TGI (NCI-H23 lung) was > 100 µM and the TGI (NCI-H460 lung) was > 100 µM. The TGI (NCI-H522 lung) was > 100 µM, the TGI (NCI/ADR-RES ovarian) was > 100 µM and the TGI (OVCAR-3 ovarian) was > 100 µM. The TGI (OVCAR-4 ovarian) was > 100 µM, the TGI (OVCAR-5 ovarian) was > 100 µM and the TGI (OVCAR-8 ovarian) was > 100 µM. For the same compound, the TGI (PC-3 prostate) was > 100 µM, the TGI (RPMI-8226 leukemia) was > 100 µM and the TGI (RXF 393 renal) was > 100 µM. The TGI (SF-268 CNS) was > 100 µM, the TGI (SF-295 CNS) was > 100 µM and the TGI (SF-539 CNS) was > 100 µM. The TGI (SK-MEL-2 melanoma) was > 100 µM, the TGI (SK-MEL-28 melanoma) was > 100 µM and the TGI (SK-MEL-5 melanoma) was > 100 µM. For the same compound, the TGI (SK-OV-3 ovarian) was > 100 µM, the TGI (SN12C renal) was > 100 µM and the TGI (SNB-19 CNS) was > 100 µM. For the same compound, the TGI (SNB-75 CNS) was > 100 µM, the TGI (SR leukemia) was > 100 µM and the TGI (SW-620 colon) was > 100 µM. For the same compound, the TGI (T-47D breast) was > 100 µM, the TGI (TK-10 renal) was > 100 µM and the TGI (U251 CNS) was > 100 µM. For the same compound, the TGI (UACC-257 melanoma) was > 100 µM, the TGI (UACC-62 melanoma) was > 100 µM and the TGI (UO-31 renal) was > 100 µM.
